Here are results for 43 compounds from patent US4863925A, “Cyclohexanedione derivative for hepatic disorders and a process for producing the same” (Nihon Nohyaku Co., Ltd., priority 1986, dated 1989).

Each structure is given as a SMILES string.

This assay relates to hepatic disorder caused by carbon tetrachloride. As to the kind of experiment: Effect of suppressing hepatic disorder caused by carbon tetrachloride (Test Example 1). Further details: key to Liver injury index: 0 = healthy, 2 = slight, 4 = evident injury, 6 = serious injury. The conditions noted are these: 30 mg/kg p.o., 6 h before CCl4 0.05 ml/kg p.o., 24 h after CCl4, mean of five mice; for Liver injury index: 0 healthy, 2 slightly affected, 4 evidently observed injury, 6 serious injury; for P-GPT (plasma glutamic pyruvic transaminase activity): Reitman-Frankel, 2,000 or higher calculated as 2,000. The assay is classed as in vivo, mice (dd-strain, male). As for the experimental part: Effect of suppressing hepatic disorder caused by carbon tetrachloride. […] The animals were sacrificed 24 hours after the administration of carbon tetrachloride, and the extent of liver injury was examined. On the other hand, blood was collected from the animal at the time of the sacrifice, and centrifuged to obtain plasma. The plasma glutamic pyruvic transminase (GPT) activity was determined according to the method of Reitman-Frankel. The activity was expressed in terms of Karmen Units (K.U.). The conditions of the liver were expressed in terms of liver injury index as follows. |Liver injury index | Condition of liver |0 Healthy liver |2 Slightly affected |4 Evidently observed injury |6 Serious injury Mice were used in groups of five of test were represented by the mean value. When the GPT activity was 2,000 units or higher, or further determination was made, the activity was calculated as 2,000 units for reasons of convenience.

On to `CCOc1ccc(C2CC(=O)C(=C3SC4C(S3)N(CC)CCN4CC)C(=O)C2)cc1` (centres unmarked) [compound 61], for which the Liver injury index was determined as 1.5 and the “P-GPT (plasma glutamic pyruvic transaminase activity)” value (shortened to “P-GPT”) is given as 494 K.U.

In the case of `Cc1ccc(C2CC(=O)C(=C3SC4N(C)CCN(C)C4(C)S3)C(=O)C2)cc1` (centres unmarked) [compound 47], the Liver injury index is on record as 0 and the “P-GPT” value is 24 K.U.

Turning to `Cc1ccc(C2CC(=O)C(=C3SC4NCC(C)NC4S3)C(=O)C2)cc1` (centres unmarked) [compound 78], the Liver injury index was found to be 0.2 and the “P-GPT” value was 18 K.U.

Turning to `CN1CCN(C)C2SC(=C3C(=O)CC(c4ccc(F)cc4)CC3=O)SC21` (centres unmarked) [compound 36], the Liver injury index came out at 1.5 and the “P-GPT” value is 268 K.U.

On to `CCN1CCN(CC)C2SC(=C3C(=O)CC(C)(C)CC3=O)SC21` (centres unmarked) [compound 6], for which the Liver injury index is on record as 0 and the “P-GPT” value is listed as 19 K.U.

In the case of `COc1ccccc1C1CC(=O)C(=C2SC3C(S2)N(C)CCN3C)C(=O)C1` (centres unmarked) [compound 51], the Liver injury index stood at 0 and the “P-GPT” value is recorded as 81 K.U.

For `Cc1ccc(C2CC(=O)C(=C3SC4C(S3)N(C)CCN4C)C(=O)C2)cc1` (centres unmarked) [Compound No. 43], the Liver injury index worked out at 0.2 and the “P-GPT” value is given as 24 K.U.

In the case of `CN1CCNC2SC(=C3C(=O)CC(c4ccccc4Cl)CC3=O)SC21` (centres unmarked) [compound 121], the Liver injury index was 0 and the “P-GPT” value was 20 K.U.

With `CN1CCN(C)C2SC(=C3C(=O)CC(c4cccs4)CC3=O)SC21` (centres unmarked) [compound 82, 2-[2,5-dimethyl-2,5-diaza-7,9-dithiabicyclo-(4.3.0)-nonane-8-ylidene]-5-(2-thienyl)-1,3-cyclo hexanedione], the Liver injury index was determined as 0.3 and the “P-GPT” value is listed as 16 K.U.

`CN1CCN(C)C2(C)SC(=C3C(=O)CC(c4cccs4)CC3=O)SC12` (centres unmarked) [compound 105]: the Liver injury index is on record as 0 and the “P-GPT” value was 15 K.U.

For `CN1CCNC2SC(=C3C(=O)CC(c4cccs4)CC3=O)SC21` (centres unmarked) [compound 109], the Liver injury index came to 0 and the “P-GPT” value is 17 K.U.

`CCOC(=O)C1C(=O)C(=C2SC3C(S2)N(C)CCN3C)C(=O)CC1c1ccc(C)cc1` (centres unmarked) [compound 102]: the Liver injury index turned out to be 1.5 and the “P-GPT” value was 319 K.U.

As for `CCOC(=O)C1C(=O)C(=C2SC3C(S2)N(C)CCN3C)C(=O)CC1c1ccc(OCC)cc1` (centres unmarked) [compound 115], the Liver injury index amounted to 0 and the “P-GPT” value is 39 K.U.

For the compound `CN1CCN(C)C2(C)SC(=C3C(=O)CC(c4ccco4)CC3=O)SC12` (centres unmarked) [compound 90], the Liver injury index came out at 0 and the “P-GPT” value was 15 K.U.

Turning to `Cc1ccccc1C1CC(=O)C(=C2SC3C(S2)N(C)CCN3C)C(=O)C1` (centres unmarked) [compound 41], the Liver injury index is given as 0.4 and the “P-GPT” value is recorded as 213 K.U.

Regarding `CCN1CCN(CC)C2SC(=C3C(=O)CC(c4ccc(OC)cc4)CC3=O)SC21` (centres unmarked) [compound 56], the Liver injury index worked out at 2.5 and the “P-GPT” value is 50 K.U.

On to `CCCN1CCN(CCC)C2SC(=C3C(=O)CC(c4ccccc4)CC3=O)SC21` (centres unmarked) [compound 28], for which the Liver injury index was 0.2 and the “P-GPT” value was 39 K.U.

Regarding `CN1CCN(C)C2(C)SC(=C3C(=O)CCCC3=O)SC12` (centres unmarked) [compound 11], the Liver injury index came to 0.5 and the “P-GPT” value is on record as 16 K.U.

Take `COc1ccc(C2CC(=O)C(=C3SC4C(S3)N(C)CCN4C)C(=O)C2)cc1OC` (centres unmarked) [compound 65]: the Liver injury index is given as 1.6 and the “P-GPT” value is 347 K.U.

Turning to `C=CCN1CCN(CC=C)C2(C)SC(=C3C(=O)CC(C)(C)CC3=O)SC12` (centres unmarked) [compound 106], the Liver injury index was 1.2 and the “P-GPT” value is recorded as 242 K.U.

Turning to `CCCN1CCN(CCC)C2SC(=C3C(=O)CC(c4ccc(OC)cc4)CC3=O)SC21` (centres unmarked) [compound 57], the Liver injury index is on record as 0.2 and the “P-GPT” value is on record as 142 K.U.

On to `CCOC(=O)C1C(=O)C(=C2SC3C(S2)N(C)CCN3C)C(=O)CC1c1ccccc1Cl` (centres unmarked) [compound 104], for which the Liver injury index came out at 1.7 and the “P-GPT” value is on record as 345 K.U.

With `CN1CCN(C)C2SC(=C3C(=O)CC(c4ccccc4Cl)CC3=O)SC21` (centres unmarked) [compound 32], the Liver injury index was 0.3 and the “P-GPT” value is listed as 22 K.U.

Turning to `COc1ccc(C2CC(=O)C(=C3SC4NCCNC4S3)C(=O)C2)cc1` (centres unmarked) [Compound No. 53], the Liver injury index was 0.1 and the “P-GPT” value is 13 K.U.

For the compound `CCC1CCC(=O)C(=C2SC3C(S2)N(C)CCN3C)C1=O` (centres unmarked) [compound 25], the Liver injury index came to 0.8 and the “P-GPT” value is 15 K.U.

Consider `CCCN1CCN(CCC)C2SC(=C3C(=O)CCCC3=O)SC21` (centres unmarked) [compound 10], for which the Liver injury index came out at 0 and the “P-GPT” value is 41 K.U.

For `CCN1CCN(CC)C2SC(=C3C(=O)CCCC3=O)SC21` (centres unmarked) [Compound No. 2], the Liver injury index amounted to 0.4 and the “P-GPT” value is given as 15 K.U.

For `CC1CC(=O)C(=C2SC3C(S2)N(C)CCN3C)C(=O)C1` (centres unmarked) [compound 18], the Liver injury index came out at 1.2 and the “P-GPT” value is reported as 22 K.U.

With `Cc1cccc(C2CC(=O)C(=C3SC4C(S3)N(C)CCN4C)C(=O)C2)c1` (centres unmarked) [compound 42], the Liver injury index is recorded as 0 and the “P-GPT” value is given as 14 K.U.

For `CN1CCN(C)C2SC(=C3C(=O)CC(c4ccccc4)CC3=O)SC21` (centres unmarked) [compound 26, 2-[2,5-dimethyl-2,5-diaza-7,9-dithiabicyclo(4,3, 0)-nonane-8-ylidene]-5-phenyl-1,3-cyclohexanedione], the Liver injury index is given as 0 and the “P-GPT” value is 12 K.U.

In the case of `CCCN1CCN(CCC)C2SC(=C3C(=O)CC(c4ccccc4)C(C(=O)OCC)C3=O)SC21` (centres unmarked) [compound 114], the Liver injury index is recorded as 2.2 and the “P-GPT” value is given as 26 K.U.

Take `COc1ccc(C2CC(=O)C(=C3SC4NCCNC4(C)S3)C(=O)C2)cc1` (centres unmarked) [compound 92]: the Liver injury index turned out to be 0.4 and the “P-GPT” value is reported as 15 K.U.

Consider `CN1CCN(C)C2SC(=C3C(=O)CCCC3=O)SC21` (centres unmarked) [compound 1], for which the Liver injury index amounted to 0.2 and the “P-GPT” value is recorded as 14 K.U.

As to `COc1cccc(C2CC(=O)C(=C3SC4C(S3)N(C)CCN4C)C(=O)C2)c1` (centres unmarked) [compound 52], the Liver injury index is 0.1 and the “P-GPT” value is 14 K.U.

Take `CC1CNC2SC(=C3C(=O)CC(C)(C)CC3=O)SC2N1` (centres unmarked) [compound 14, 2-[3-methyl-2,5-diaza-7,9-dithiabicyclo-(4.3.0)-nonane-8-ylidene]-5,5-dimethyl-1,3-cyclohexanedione]: the Liver injury index was found to be 0.4 and the “P-GPT” value is reported as 18 K.U.

With `CN1CCN(C)C2SC(=C3C(=O)CC(C)(C)CC3=O)SC21` (centres unmarked) [Compound No. 4], the Liver injury index was 0 and the “P-GPT” value is 11 K.U.

For `CCC(C)C1CC(=O)C(=C2SC3C(S2)N(C)CCN3C)C(=O)C1` (centres unmarked) [compound 21], the Liver injury index was 0.1 and the “P-GPT” value is on record as 23 K.U.

Consider `CN1CCN(C)C2(C)SC(=C3C(=O)CC(C)(C)CC3=O)SC12` (centres unmarked) [compound 12, 2-[1,2,5-trimethyl-2,5-diaza-7,9-dithiabicyclo(4.3.0)-nonane-8-ylidene]-5,5-dimethyl-1,3-cyclohexanedione], for which the Liver injury index is recorded as 0.4 and the “P-GPT” value was 33 K.U.

Turning to `CCOc1ccc(C2CC(=O)C(=C3SC4N(C)CCN(C)C4(C)S3)C(=O)C2)cc1` (centres unmarked) [compound 63], the Liver injury index is 0 and the “P-GPT” value was 15 K.U.

On to `CCc1ccc(C2CC(=O)C(=C3SC4C(S3)N(C)CCN4C)C(=O)C2)cc1` (centres unmarked) [compound 48], for which the Liver injury index stood at 0.3 and the “P-GPT” value was 18 K.U.

In the case of `CN1CCNC2SC(=C3C(=O)CC(c4ccco4)CC3=O)SC21` (centres unmarked) [compound 108], the Liver injury index is listed as 1.0 and the “P-GPT” value is listed as 24 K.U.

For `COc1ccc(C2CC(=O)C(=C3SC4N(C)CCN(C)C4(C)S3)C(=O)C2)cc1` (centres unmarked) [compound 59], the Liver injury index amounted to 0.1 and the “P-GPT” value is 16 K.U.

Regarding `CCOc1ccc(C2CC(=O)C(=C3SC4C(S3)N(C)CCN4C)C(=O)C2)cc1` (centres unmarked) [compound 60], the Liver injury index was 0.1 and the “P-GPT” value is listed as 26 K.U.
